Measured values as given in patent publication US9428500B2, “Alpha-carbolines for the treatment of cancer” (UNIVERSITA' DEGLI STUDI DI MILANO—BICOCCA, priority 2012, dated 2016).
Where two headings read alike, the source gives them in different places.

Experiments:
[1] = system: BaF3 cells transformed with the oncogenic fusion protein NPM/ALK; test: cells; settings: read-out: BaF3 NPM/ALK WT IC50
[2] = system: BaF3 cells transformed with the oncogenic fusion protein NPM/ALK
[3] = target: wild-type ALK kinase (rALK) (Homo sapiens (Human), UniProt Q9UM73); test: ELISA-based in vitro kinase assay, wild-type ALK; format: biochemical; settings: recombinant ALK, 0.3 mM ATP; read-out: ELISA ALK WT IC50
Protocol: Recombinant 3C protease was used to remove the GST tag. Purified ALK was used to screen inhibitors in the ELISA-based kinase assay, as follows: Nunc-Immuno 96-well plates were incubated overnight at 30° C. with coating solution containing 2 μg of a specific ALK peptide substrate ([…]) in PBS. Wells were then washed with 200 μL of wash buffer (PBS-Tween 0.05%) and incubated with 4% BSA in PBS for at least 2 h at 30° C. […] For inhibitor testing the reaction mix was preincubated with inhibitor or vehicle for 10 min at room temperature before transferring to the ELISA plate. After the reaction, the wells were washed 5 times with 200 uL of wash buffer. Phosphorylated peptide was detected using 100 μL/well of a mouse monoclonal anti-phosphotyrosine antibody (clone 4G10 UpstateBiotech Ltd) diluted 1:2000 in PBS+4% BSA. After 30 min incubation at room temperature the antibody was removed and wells were washed as described above. 100 μL of a secondary antibody (anti-mouse IgG, Horseradish Peroxidase linked whole antibody, Amersham Pharmacia Biotech) diluted 1:1000 in PBS+4% BSA was added to each well and the plate was incubated again for 30 min at room temperature before washing as above. The plate was developed using 100 μL/well TMB Substrate Solution (Pierce) and the reaction was stopped by adding an equal volume of 1M H2SO4. Finally, the absorbance was read at 450 nm using an ELISA plate reader (Bio-Rad).

[4] = system: parental untransformed BaF3 cells; test: Tritiated thymidine uptake cell proliferation assay, parental BaF3; format: cell-based; settings: Mus musculus, BaF3; 3H-thymidine uptake, 72 h, medium with IL-3

Chain of wild-type ALK kinase (rALK) (Q9UM73 19-1620): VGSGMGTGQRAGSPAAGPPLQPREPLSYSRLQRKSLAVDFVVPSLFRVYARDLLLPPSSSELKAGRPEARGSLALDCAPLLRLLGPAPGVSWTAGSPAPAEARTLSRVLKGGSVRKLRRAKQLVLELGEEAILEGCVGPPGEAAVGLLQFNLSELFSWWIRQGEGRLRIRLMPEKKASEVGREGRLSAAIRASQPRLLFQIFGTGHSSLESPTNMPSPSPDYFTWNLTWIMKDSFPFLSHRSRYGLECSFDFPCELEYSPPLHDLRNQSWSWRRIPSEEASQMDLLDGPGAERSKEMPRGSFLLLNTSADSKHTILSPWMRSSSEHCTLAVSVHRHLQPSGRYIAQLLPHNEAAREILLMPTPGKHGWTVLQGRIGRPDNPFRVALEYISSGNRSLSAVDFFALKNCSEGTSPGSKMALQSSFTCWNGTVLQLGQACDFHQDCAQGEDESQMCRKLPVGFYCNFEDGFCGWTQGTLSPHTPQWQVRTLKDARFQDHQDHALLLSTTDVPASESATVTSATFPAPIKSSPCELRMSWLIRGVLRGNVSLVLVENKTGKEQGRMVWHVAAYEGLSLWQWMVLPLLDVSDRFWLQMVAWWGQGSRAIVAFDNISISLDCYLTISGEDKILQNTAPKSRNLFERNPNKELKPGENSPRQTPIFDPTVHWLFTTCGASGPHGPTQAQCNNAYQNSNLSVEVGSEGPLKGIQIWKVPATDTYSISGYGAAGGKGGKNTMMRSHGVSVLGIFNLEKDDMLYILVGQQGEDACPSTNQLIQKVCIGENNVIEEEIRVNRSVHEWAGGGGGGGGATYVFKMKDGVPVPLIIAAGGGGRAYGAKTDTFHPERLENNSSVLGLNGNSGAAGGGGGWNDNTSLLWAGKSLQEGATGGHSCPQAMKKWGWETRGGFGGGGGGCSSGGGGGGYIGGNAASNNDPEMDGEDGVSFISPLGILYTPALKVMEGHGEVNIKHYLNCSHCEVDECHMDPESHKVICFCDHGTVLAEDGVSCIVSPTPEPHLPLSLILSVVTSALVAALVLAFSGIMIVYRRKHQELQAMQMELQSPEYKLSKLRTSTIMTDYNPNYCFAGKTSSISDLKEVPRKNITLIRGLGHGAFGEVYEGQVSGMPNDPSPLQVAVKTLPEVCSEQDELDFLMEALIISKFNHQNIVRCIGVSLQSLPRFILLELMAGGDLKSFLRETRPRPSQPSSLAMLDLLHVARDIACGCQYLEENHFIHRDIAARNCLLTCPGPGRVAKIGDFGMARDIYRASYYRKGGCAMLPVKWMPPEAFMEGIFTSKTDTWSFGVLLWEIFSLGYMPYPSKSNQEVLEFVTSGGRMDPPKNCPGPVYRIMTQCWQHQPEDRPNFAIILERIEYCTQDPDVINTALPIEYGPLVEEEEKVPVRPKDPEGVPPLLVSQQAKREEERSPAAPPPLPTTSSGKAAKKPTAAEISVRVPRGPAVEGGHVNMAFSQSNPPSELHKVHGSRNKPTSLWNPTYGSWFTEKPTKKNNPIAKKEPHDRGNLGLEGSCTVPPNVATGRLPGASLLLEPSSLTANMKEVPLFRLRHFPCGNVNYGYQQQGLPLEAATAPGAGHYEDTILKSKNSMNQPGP

For `CN1CCN(c2ccc(-c3ccc4[nH]c5nccc(-c6ccc(N7CCN(C)CC7)cc6)c5c4c3)cc2)CC1` [Example 20, 4,6-Bis-[4-(4-methylpiperazin-1-yl)-phenyl]-9H-pyrido[2,3-b]indole], the IC50 [1] was 520 nM, the “Selectivity Index (WT)” value [2] was 7 and the IC50 [3] was 10 µM. The IC50 [4] was 3600 nM.
In the case of `C/C(=C\c1ccccc1)c1ccnc2[nH]c3ccc(-c4ccc(N5CCN(C)CC5)cc4)cc3c12` [Example 28, (E)-6-(4-(4-methylpiperazin-1-yl)phenyl)-4-(1-phenylprop-1-en-2-yl)-9H-pyrido[2,3-b]indole], the IC50 [4] is reported as 800 nM.
In the case of `CN1CCN(c2ccc(-c3ccc4[nH]c5nccc(/C=C/c6ccccc6NS(C)(=O)=O)c5c4c3)cc2)CC1` [Example 29, N-[(E)-2-(2-{6-[4-(4-Methylpiperazin-1-yl)-phenyl]-9H-pyrido[2,3-b]indol-4-yl}-vinyl)-phenyl]-methanesulfonamide], the IC50 [4] is reported as 680 nM.
In the case of `CC/C=C(\c1ccccc1)c1ccnc2[nH]c3ccc(-c4ccc(N5CCN(C)CC5)cc4)cc3c12` [Example 30, (E)-6-[4-(4-Methylpiperazin-1-yl)-phenyl]-4-(1-phenyl-but-1-enyl)-9H-pyrido[2,3-b]indole], the IC50 [4] is reported as 220 nM.
`CC(C)[Si](C=Cc1ccnc2[nH]c3ccc(-c4ccc(N5CCN(C)CC5)cc4)cc3c12)(C(C)C)C(C)C` [Example 32, (E) and (Z)-6-(4-(4-methylpiperazin-1-yl)phenyl)-4-(2-(triisopropylsilyl)vinyl)-9H-pyrido[2,3-b]indole] was tested, and the IC50 [4] was 6900 nM.
`CN1CCN(c2ccc(-c3ccc4[nH]c5nccc(-c6ccc(C(O)c7ccccc7)cc6)c5c4c3)cc2)CC1` (stereo not drawn) [Example 33, (4-{6-[4-(4-Methylpiperazin-1-yl)-phenyl]-9H-pyrido[2,3-b]indol-4-yl}-phenyl)-phenyl-methanol] showed an IC50 [4] of 1000 nM.
With `CN1CCN(c2ccc(-c3ccc4[nH]c5nccc(Nc6ccccc6[N+](=O)[O-])c5c4c3)cc2)CC1` [Example 34, {6-[4-(4-Methylpiperazin-1-yl)-phenyl]-9H-pyrido[2,3-b]indol-4-yl}-(2-nitro-phenyl)-amine] the IC50 [4] was 860 nM.
`CN1CCN(c2ccc(-c3ccc4[nH]c5nccc(Nc6cccc([N+](=O)[O-])c6)c5c4c3)cc2)CC1` [Example 35, 6-(4-(4-Methylpiperazin-1-yl)phenyl)-N-(3-nitrophenyl)-9H-pyrido[2,3-b]indol-4-amine] was tested, and the IC50 [4] was 480 nM.
Work on `CN1CCC(N2CCN(c3ccc(-c4ccc5[nH]c6nccc(Nc7ccccc7[N+](=O)[O-])c6c5c4)cc3)CC2)CC1` [Example 36, 6-(4-(4-(1-Methylpiperidin-4-yl)piperazin-1-yl)phenyl)-N-(2-nitrophenyl)-9H-pyrido[2,3-b]indol-4-amine] yielded an IC50 [4] of 7100 nM.
Compound `CN1CCN(c2ccc(-c3ccc4[nH]c5nccc(C#Cc6ccccc6)c5c4c3)cc2)CC1` [Example 37, 6-[4-(4-Methylpiperazin-1-yl)-phenyl]-4-phenylethynyl-9H-pyrido[2,3-b]indole] has an IC50 [4] of 4400 nM.
For `COc1ccccc1C#Cc1ccnc2[nH]c3ccc(-c4ccc(N5CCN(C)CC5)cc4)cc3c12` [Example 38, 4-(2-Methoxyphenylethynyl)-6-[4-(4-methylpiperazin-1-yl)-phenyl]-9H-pyrido[2,3-b]indole], the IC50 [4] was 1500 nM.
With `CN1CCN(c2ccc(-c3ccc4[nH]c5nccc(C#Cc6ccccc6C(F)(F)F)c5c4c3)cc2)CC1` [Example 39, 6-[4-(4-Methylpiperazin-1-yl)-phenyl]-4-(2-trifluoromethyl-phenylethynyl)-9H-pyrido[2,3-b]indole] the IC50 [4] was 1200 nM.
Work on `CN1CCN(c2ccc(-c3ccc4[nH]c5nccc(C#Cc6ccc(F)cc6)c5c4c3)cc2)CC1` [Example 40, 4-((4-Fluorophenyl)ethynyl)-6-[4-(4-methylpiperazin-1-yl)-phenyl]-9H-pyrido[2,3-b]indole] yielded an IC50 [4] of 920 nM.
With `CN1CCN(c2ccc(-c3ccc4[nH]c5nccc(C#Cc6ccccc6F)c5c4c3)cc2)CC1` [Example 41, 4-((2-Fluorophenyl)ethynyl)-6-[4-(4-methylpiperazin-1-yl)-phenyl]-9H-pyrido[2,3-b]indole] the IC50 [4] was 2500 nM.
Compound `CN1CCN(c2ccc(-c3ccc4[nH]c5nccc(C#Cc6ccccc6Cl)c5c4c3)cc2)CC1` [Example 42, 4-((2-Chlorophenyl)ethynyl)-6-[4-(4-methylpiperazin-1-yl)-phenyl]-9H-pyrido[2,3-b]indole] has an IC50 [4] of 2100 nM.
In the case of `CC(C)[Si](C#Cc1ccnc2[nH]c3ccc(-c4ccc(N5CCN(C)CC5)cc4)cc3c12)(C(C)C)C(C)C` [Example 43, 6-(4-(4-Methylpiperazin-1-yl)phenyl)-4-((triisopropylsilyl)ethynyl)-9H-pyrido[2,3-b]indole], the IC50 [4] is reported as 3400 nM.
For `C#Cc1ccnc2[nH]c3ccc(-c4ccc(N5CCN(C)CC5)cc4)cc3c12` [Example 44, 4-Ethynyl-6-(4-(4-methylpiperazin-1-yl)phenyl)-9H-pyrido[2,3-b]indole], the IC50 [1] was 170 nM, the “Selectivity Index (WT)” value [2] was 2 and the IC50 [3] was 29 µM. It also gave an IC50 [4] of 350 nM.
`COc1ccccc1C#Cc1ccnc2c1c1cc(-c3ccc(N4CCN(C)CC4)cc3)ccc1n2C` [Example 45, 4-(2-Methoxyphenylethynyl)-9-methyl-6-[4-(4-methylpiperazin-1-yl)-phenyl]-9H-pyrido[2,3-b]indole] was tested, and the IC50 [1] was 1100 nM, the “Selectivity Index (WT)” value ([2]; BaF3 parental vs NPM/ALK WT) was 2 and the IC50 [3] was 3.8 µM. For the same compound, the IC50 [4] was 2100 nM.
In the case of `COc1ccc(Sc2ccnc3[nH]c4ccc(-c5ccc(N6CCN(C)CC6)cc5)cc4c23)cc1` [Example 46, 4-(4-Methoxy-phenylsulfanyl)-6-[4-(4-methyl-piperazin-1-yl)-phenyl]-9H-pyrido[2,3-b]indole], the IC50 [3] is reported as 5.7 µM.
Compound `Cc1ccc(Cn2cc(-c3ccnc4[nH]c5ccc(-c6ccc(N7CCN(C)CC7)cc6)cc5c34)nn2)cc1` [Example 47, 4-(1-(4-methylbenzyl)-1H-1,2,3-triazol-4-yl)-6-(4-(4-methylpiperazin-1-yl)phenyl)-9H-pyrido[2,3-b]indole] has an IC50 [3] of 6.8 µM.
`CN1CCN(c2ccc(-c3ccc4[nH]c5nccc(-c6ccc(Oc7ccccc7)cc6)c5c4c3)cc2)CC1` [Example 48, 6-(4-(4-methylpiperazin-1-yl)phenyl)-4-(4-phenoxyphenyl)-9H-pyrido[2,3-b]indole] gave an IC50 [4] of 2100 nM.
`CN1CCN(c2ccc(-c3ccc4[nH]c5nccc(-c6ccc(-c7ccc(F)cc7)nc6)c5c4c3)cc2)CC1` [Example 49, 4-(6-(4-fluorophenyl)pyridin-3-yl)-6-(4-(4-methylpiperazin-1-yl)phenyl)-9H-pyrido[2,3-b]indole] gave an IC50 [4] of 3200 nM.
In the case of `COc1cc(-c2ccnc3[nH]c4ccc(-c5ccc(N6CCN(C)CC6)cc5)cc4c23)c(OC)cc1C(=O)c1ccccc1` [Example 50, (2,5-dimethoxy-4-(6-(4-(4-methylpiperazin-1-yl)phenyl)-9H-pyrido[2,3-b]indol-4-yl)phenyl)(phenyl)methanone], the IC50 [4] is reported as 1100 nM.
For `COc1cc(C(=O)c2ccccc2)c(O)cc1-c1ccnc2[nH]c3ccc(-c4ccc(N5CCN(C)CC5)cc4)cc3c12` [Example 51, (2-hydroxy-5-methoxy-4-(6-(4-(4-methylpiperazin-1-yl)phenyl)-9H-pyrido[2,3-b]indol-4-yl)phenyl)(phenyl)methanone], the IC50 [4] was 720 nM.
In the case of `COc1cc(-c2ccnc3[nH]c4ccc(-c5ccc(N6CCN(C)CC6)cc5)cc4c23)c(OC)cc1Cc1ccccc1` [Example 52, 4-(4-benzyl-2,5-dimethoxyphenyl)-6-(4-(4-methylpiperazin-1-yl)phenyl)-9H-pyrido[2,3-b]indole], the IC50 [4] is reported as 810 nM.
With `COc1cc(Cc2ccccc2)c(O)cc1-c1ccnc2[nH]c3ccc(-c4ccc(N5CCN(C)CC5)cc4)cc3c12` [Example 53, 2-benzyl-4-methoxy-5-(6-(4-(4-methylpiperazin-1-yl)phenyl)-9H-pyrido[2,3-b]indol-4-yl)phenol] the IC50 [4] was 1800 nM.
For `CN1CCN(c2ccc(-c3ccc4[nH]c5nccc(-c6ccc(Cc7ccccc7)cc6C(F)(F)F)c5c4c3)cc2)CC1` [Example 55, 4-(4-benzyl-2-(trifluoromethyl)phenyl)-6-(4-(4-methylpiperazin-1-yl)phenyl)-9H-pyrido[2,3-b]indole], the IC50 [4] was 5100 nM.
`COc1cc(C(O)c2ccccc2)c(OC)cc1-c1ccnc2[nH]c3ccc(-c4ccc(N5CCN(C)CC5)cc4)cc3c12` (stereo not drawn) [Example 57, (2,5-dimethoxy-4-(6-(4-(4-methylpiperazin-1-yl)phenyl)-9H-pyrido[2,3-b]indol-4-yl)phenyl)(phenyl)methanol] was tested, and the IC50 [4] was 790 nM.
Compound `CN1CCN(c2ccc(-c3ccc4[nH]c5nccc(N6CCC(Cc7ccccc7)CC6)c5c4c3)cc2)CC1` [Example 58, 4-(4-benzylpiperidin-1-yl)-6-(4-(4-methylpiperazin-1-yl)phenyl)-9H-pyrido[2,3-b]indole] has an IC50 [4] of 3300 nM.
`CN1CCN(c2ccc(-c3ccc4[nH]c5nccc(N6CCN(Cc7ccccc7)CC6)c5c4c3)cc2)CC1` [Example 59, 4-(4-benzylpiperazin-1-yl)-6-(4-(4-methylpiperazin-1-yl)phenyl)-9H-pyrido[2,3-b]indole] showed an IC50 [4] of 830 nM.
